Laboratory results reported in patent US8906911B2, “Chemokine receptor antagonists” (AbbVie Inc., priority 2012, dated 2014).
Read-outs that look alike come from different tables or passages of the source.

Legend:
human CCR2B [1] = target: T1, human CCR2B (Homo sapiens (Human), UniProt P41597); experiment: Inhibition of [125I]-labeled MCP-1 binding to hCCR2B (radioligand binding in CHO cells); settings: mean Ki; [125I]-MCP-1 50 pM; CHO cells expressing human CCR2B and Gα16
From the text: (§1) CHO cells expressing human CCR2B were generated as follows. cDNA for human CCR2B (cloned from human blood) was cloned into plasmid pcDNA3.1 (from Invitrogen). The resulting plasmids were separately transfected into CHO cells expressing human Gα16 (from Molecular Devices). […] CHO cells expressing rat CCR2 were generated as follows. cDNA for rat CCR2 (cloned from rat macrophage) was cloned into plasmid pEF-flag (from Chinese Academy of Science). The resulting plasmids were transfected into CHO cells expressing human Gα16 (from […]).
Inhibition of [^125I]-Labeled MCP-1 Binding to hCCR2B
Radioligand binding assays were performed in CHO cells expressing human CCR2B and Gα16 coupling protein. All compounds were dissolved in DMSO and assays run at a final DMSO concentration of 0.5% (v/v). [^125I]-labeled human MCP-1 was purchased from PerkinElmer. Unlabelled human MCP-1 was purchased from PeproTech.
Compounds were serially diluted in DMSO before diluting into assay buffer (25 mM HEPES, pH 7.4, 5 mM MgCl2, 1 mM CaCl2, 0.5% BSA) with cryo preserved CHO cells expressing human CCR2B and the Gα16 coupling protein (30×10^3/well) and [^125I]-MCP-1 (50 pM). The reaction was incubated at room temperature for 90 minutes before transferring to GF/C filter membrane (PerkinElmer) pre-treated with 0.3% polyethyleneimine for 2 hours at 4° C. The filter membrane was washed six times with ice cold wash buffer (25 mM HEPES, pH 7.4, 5 mM MgCl2, 1 mM CaCl2, 500 mM NaCl, 0.01% (m/v) azide), dried, and sealed in a RLB sample bag (Agilent Technologies) before adding 5.0 mL Microscint 20 to each bag. Membrane was counted on Microbeta counter where background binding was determined by the presence of 100 nM MCP-1 and control total binding was determined by addition of DMSO in place of the test compound. The radioactivity values (cpm) were used to calculate the percent inhibition at a given compound concentration and the data fit to a sigmoidal curve in a semi-log plot to determine IC50 values. The corresponding Ki value is calculated as follows:
Ki=IC50/(1+[radioligand]/Kd), where [radioligand] is the concentration of the label and Kd (dissociation constant) is determined in saturation experiment with different concentrations of labeled MCP-1.

rat CCR2 = rat CCR2 (Rattus norvegicus (Rat), UniProt O55193); experiment: Inhibition of native agonist (rat MCP-1)-induced intracellular calcium release, calcium flux assay in CHO cells expressing rat CCR2 and Gα16; assay type: cell-based; settings: read-out: rCCR2 Kb
Sequence of rat CCR2 (O55193 whole entry): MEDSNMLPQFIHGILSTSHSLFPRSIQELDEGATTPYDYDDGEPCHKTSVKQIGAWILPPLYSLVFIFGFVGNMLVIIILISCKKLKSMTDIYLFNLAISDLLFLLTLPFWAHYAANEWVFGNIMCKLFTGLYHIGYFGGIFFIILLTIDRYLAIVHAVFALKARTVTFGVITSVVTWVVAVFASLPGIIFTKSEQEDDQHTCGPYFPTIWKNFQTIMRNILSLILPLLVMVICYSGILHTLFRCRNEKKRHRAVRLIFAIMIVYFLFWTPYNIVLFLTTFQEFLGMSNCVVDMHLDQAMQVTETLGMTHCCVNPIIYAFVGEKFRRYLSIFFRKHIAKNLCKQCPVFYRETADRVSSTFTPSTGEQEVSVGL
From the text: as §1
(§2) Inhibition of Native Agonist-Induced Intracellular Calcium Release in Cells Expressing hCCR2B or rCCR2
(§3) Calcium flux assays were performed in CHO cells expressing human CCR2B and Gα16 coupling protein, or rat CCR2 and Gα16 coupling protein. All compounds were dissolved in DMSO and assays run at a final DMSO concentration of 0.25% (v/v). Human MCP-1 was purchased from PeproTech and used at a final assay concentration of 2 nM, while rat MCP-1 was purchased from R&D and used at a final assay concentration of 4 nM. Assays with cells expressing human CCR2B were performed with human MCP-1, while assays with cells expressing rat CCR2 were performed with rat MCP-1.
(§4) Briefly, cells were cultured overnight in a microtiter plate at 8000 per well. The next day, the resultant adherent cells were incubated in assay buffer (20 mM HEPES, pH 7.4, 0.1% bovine serum albumin, and 2.5 mM probenocid in Hank's Buffered Saline Solution) containing Calcium 4 dye (Molecular Probes) at 37° C. for 60 minutes. Calcium flux assays were performed on a FLIPR^Tetra instrument (Molecular Devices) by adding compound to the cells followed by addition of native agonist and measuring the change in fluorescence as a function of time. Maximal and minimal values for fluorescence were determined using native agonist (2 nM MCP-1) for human or rat CCR2, or buffer addition, respectively. Fluorescence values were used to calculate the percent inhibition at a given compound concentration and the data fit to a sigmoidal curve in a semi-log plot to determine IC50 values. The Kb value is calculated as Kb=IC50/(1+[agonist]/EC50), where [agonist] is the concentration of agonist used and EC50 is the agonist potency determined in the previous experiments. Mean Kb values and IC50 of the compounds assayed are reported in Table 2 and Table 3 respectively.

human CCR2B [2] = target: T1, human CCR2B; experiment: Inhibition of native agonist (human MCP-1)-induced intracellular calcium release, calcium flux assay in CHO cells expressing human CCR2B and Gα16; assay type: cell-based; settings: for IC50: read-out: hCCR2B IC50; for Kb: read-out: hCCR2B Kb
From the text: as §1, §2, §3, §4

T1 sequence (P41597 other isoform, or with tags, fused parts or gaps): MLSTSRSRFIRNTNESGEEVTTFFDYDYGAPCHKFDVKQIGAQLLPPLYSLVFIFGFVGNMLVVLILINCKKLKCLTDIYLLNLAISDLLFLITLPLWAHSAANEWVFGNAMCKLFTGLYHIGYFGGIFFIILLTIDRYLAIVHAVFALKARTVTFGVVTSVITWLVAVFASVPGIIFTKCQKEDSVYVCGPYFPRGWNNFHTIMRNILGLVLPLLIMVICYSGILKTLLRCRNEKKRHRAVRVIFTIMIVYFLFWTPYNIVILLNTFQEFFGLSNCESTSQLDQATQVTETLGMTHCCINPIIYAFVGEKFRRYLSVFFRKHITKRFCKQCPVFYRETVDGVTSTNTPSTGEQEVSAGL

| Compound | Ki (human CCR2B [1]) | Kb (rat CCR2) | IC50 (human CCR2B [2]; calcium flux, human MCP-1 2 nM) | Kb (human CCR2B [2]) | IC50 (human CCR2B [2]) |
| --- | --- | --- | --- | --- | --- |
| CO[C@@H]1COCC[C@@H]1N[C@@H]1C[C@H]2CCC[C@@]2(C(=O)N2C[C@@H]3C[C@H]2CN3c2cc(C(F)(F)F)ccn2)C1 [Example 2, 1,5-anhydro-2,3-dideoxy-4-O-methyl-3-{[(2R,3aR,6aR)-3a-({(1S,4S)-5-[4-(trifluoromethyl)pyridin-2-yl]-2,5-diazabicyclo[2.2.1]hept-2-yl}carbonyl)octahydropentalen-2-yl]amino}-D-erythro-pentitol] | 60 nM | 12 nM | 76.7 nM | 19 nM |  |
| C[C@H]1COCC[C@@H]1N[C@@H]1C[C@H]2CCC[C@@]2(C(=O)N2C[C@@H]3C[C@H]2CN3c2cc(C(F)(F)F)ccn2)C1 [Example 61, [(2R,3aR,6aR)-2-{[(3R,4S)-3-methyltetrahydro-2H-pyran-4-yl]amino}hexahydropentalen-3a(1H)-yl]{(1S,4S)-5-[4-(trifluoromethyl)pyridin-2-yl]-2,5-diazabicyclo[2.2.1]hept-2-yl}methanone] | 69 nM | 30 nM | 100 nM | 25 nM |  |
| CO[C@@H]1COCC[C@@H]1N(C)[C@@H]1C[C@H]2CCC[C@@]2(C(=O)N2C[C@@H]3C[C@H]2CN3c2ccc(Cl)c(C(F)(F)F)c2)C1 [Example 51, 1,5-anhydro-3-{[(2R,3aR,6aR)-3a-({(1S,4S)-5-[4-chloro-3-(trifluoromethyl)phenyl]-2,5-diazabicyclo[2.2.1]hept-2-yl}carbonyl)octahydropentalen-2-yl](methyl)amino}-2,3-dideoxy-4-O-methyl-D-erythro-pentitol] | 21 nM | 29 nM | 43.3 nM | 11 nM |  |
| C[C@@H]1COCC[C@H]1N[C@@H]1C[C@H]2CCC[C@@]2(C(=O)N2C[C@@H]3C[C@H]2CN3c2cc(C(F)(F)F)ccn2)C1 [Example 64, [(2R,3aR,6aR)-2-{[(3S,4R)-3-methyltetrahydro-2H-pyran-4-yl]amino}hexahydropentalen-3a(1H)-yl]{(1S,4S)-5-[4-(trifluoromethyl)pyridin-2-yl]-2,5-diazabicyclo[2.2.1]hept-2-yl}methanone] | 12 nM | 9 nM | 16.5 nM | 4 nM |  |
| CO[C@@H]1COCC[C@@H]1N[C@@H]1C[C@H]2CCC[C@@]2(C(=O)N2C[C@@H]3C[C@H]2CN3c2cc(C#N)ccc2C(F)(F)F)C1 [Example 36, 1,5-anhydro-3-{[(2R,3aR,6aR)-3a-({(1S,4S)-5-[5-cyano-2-(trifluoromethyl)phenyl]-2,5-diazabicyclo[2.2.1]hept-2-yl}carbonyl)octahydropentalen-2-yl]amino}-2,3-dideoxy-4-O-methyl-D-erythro-pentitol] | 1060 nM | 24 nM | 305 nM | 75 nM |  |
| N#Cc1ccc(C(F)(F)F)cc1N1C[C@@H]2C[C@H]1CN2C(=O)[C@@]12CCC[C@@H]1C[C@@H](N1CCC(c3ccccc3)CC1)C2 [Example 48, 2-[(1S,4S)-5-{[(2R,3aR,6aR)-2-(4-phenylpiperidin-1-yl)hexahydropentalen-3a(1H)-yl]carbonyl}-2,5-diazabicyclo[2.2.1]hept-2-yl]-4-(trifluoromethyl)benzonitrile] | 8 nM | 17 nM |  | 13 nM | 51.8 nM |
| CO[C@@H]1COCC[C@@H]1N[C@@H]1C[C@H]2CCC[C@@]2(C(=O)N2C[C@@H]3C[C@H]2CN3c2nc(C(F)(F)F)cs2)C1 [Example 30, 1,5-anhydro-2,3-dideoxy-4-O-methyl-3-{[(2R,3aR,6aR)-3a-({(1S,4S)-5-[4-(trifluoromethyl)-1,3-thiazol-2-yl]-2,5-diazabicyclo[2.2.1]hept-2-yl}carbonyl)octahydropentalen-2-yl]amino}-D-erythro-pentitol] | 831 nM | 4 nM | 95.5 nM | 23 nM |  |
| CO[C@@H]1COCC[C@@H]1N(C)[C@@H]1C[C@H]2CCC[C@@]2(C(=O)N2C[C@@H]3C[C@H]2CN3c2ccc(C#N)c(C(F)(F)F)c2)C1 [Example 56, 1,5-anhydro-3-{[(2R,3aR,6aR)-3a-({(1S,4S)-5-[4-cyano-3-(trifluoromethyl)phenyl]-2,5-diazabicyclo[2.2.1]hept-2-yl}carbonyl)octahydropentalen-2-yl](methyl)amino}-2,3-dideoxy-4-O-methyl-D-erythro-pentitol] | 32 nM | 9 nM | 46 nM | 11 nM |  |
| CO[C@@H]1COCC[C@@H]1N[C@@H]1C[C@H]2CCC[C@@]2(C(=O)N2C[C@@H]3C[C@H]2CN3c2ccc(F)c(Cl)c2)C1 [Example 20, 1,5-anhydro-3-{[(2R,3aR,6aR)-3a-{[(1S,4S)-5-(3-chloro-4-fluorophenyl)-2,5-diazabicyclo[2.2.1]hept-2-yl]carbonyl}octahydropentalen-2-yl]amino}-2,3-dideoxy-4-O-methyl-D-erythro-pentitol] | 112 nM | 18 nM | 182 nM | 45 nM |  |
| CC[C@@H]1COCC[C@@H]1N[C@@H]1C[C@H]2CCC[C@@]2(C(=O)N2C[C@@H]3C[C@H]2CN3c2cc(C(F)(F)F)ccn2)C1 [Example 65, [(2R,3aR,6aR)-2-{[(3S,4S)-3-ethyltetrahydro-2H-pyran-4-yl]amino}hexahydropentalen-3a(1H)-yl]{(1S,4S)-5-[4-(trifluoromethyl)pyridin-2-yl]-2,5-diazabicyclo[2.2.1]hept-2-yl}methanone] | 6 nM | 8 nM |  | 7 nM | 28 nM |
| CO[C@@H]1COCC[C@@H]1N[C@@H]1C[C@H]2CCC[C@@]2(C(=O)N2C[C@@H]3C[C@H]2CN3c2cc(C(F)(F)F)ccc2C#N)C1 [Example 28, 1,5-anhydro-3-{[(2R,3aR,6aR)-3a-({(1S,4S)-5-[2-cyano-5-(trifluoromethyl)phenyl]-2,5-diazabicyclo[2.2.1]hept-2-yl}carbonyl)octahydropentalen-2-yl]amino}-2,3-dideoxy-4-O-methyl-D-erythro-pentitol] | 32 nM | 5 nM | 19.8 nM | 5 nM |  |
| CO[C@@H]1COCC[C@@H]1N(C)[C@@H]1C[C@H]2CCC[C@@]2(C(=O)N2C[C@@H]3C[C@H]2CN3c2cc(C(F)(F)F)ccc2C(F)(F)F)C1 [Example 52, 1,5-anhydro-3-{[(2R,3aR,6aR)-3a-({(1S,4S)-5-[2,5-bis(trifluoromethyl)phenyl]-2,5-diazabicyclo[2.2.1]hept-2-yl}carbonyl)octahydropentalen-2-yl](methyl)amino}-2,3-dideoxy-4-O-methyl-D-erythro-pentitol] | 49 nM | 38 nM |  | 21 nM | 83.9 nM |
| CO[C@@H]1COCC[C@@H]1N[C@@H]1C[C@H]2CCC[C@@]2(C(=O)N2C[C@@H]3C[C@H]2CN3c2cccc(C(F)(F)F)n2)C1 [Example 22, 1,5-anhydro-2,3-dideoxy-4-O-methyl-3-{[(2R,3aR,6aR)-3a-({(1S,4S)-5-[6-(trifluoromethyl)pyridin-2-yl]-2,5-diazabicyclo[2.2.1]hept-2-yl}carbonyl)octahydropentalen-2-yl]amino}-D-erythro-pentitol] | 120 nM | 12 nM | 153 nM | 38 nM |  |
